Experiments:
Type in all cases: in vivo, Arabidopsis thaliana
Arabidopsis seedlings [1] = test: NAA induced somatic embryogenesis with or without C#3
Protocol: The ability of C#3 to enhance embryogenesis in the presence of other auxins was tested; namely the synthetic auxin naphthalene-1-acetic acid (NAA). […] C#3 therefore enhances the developmental responses that are activated by auxin treatment. Compound C#3 is therefore able to potentiate the effect of other auxins.

Arabidopsis seedlings [2] = test: Somatic embryo formation at 0 to 2 μM 2,4-D with or without C#3
Source text: 2,4-D is widely used to induce somatic embryogenesis from plant explant. In Arabidopsis immature zygotic embryos occasionally form somatic embryos when grown in basal medium, while germinating embryos or other vegetative tissues are unable to form embryos. […] Compound #3 therefore potentiates the effect of auxin 2,4-D. As shown in the micrograph in FIG. 7B, at the lowest effective concentration of C#3, areas of dense, light green embryogenic tissue (arrows) were formed, rather than histodifferentiated, bipolar somatic embryos.

Arabidopsis seedlings [3] = test: Time course of somatic embryo development, morphology and ENOD4L::GFP / LEC1::LEC1:GFP embryo markers
Protocol: The effect of the compounds on seedlings, without 2,4-D, was tested by germinating seedlings on MS10 solidified with 1% agar, and supplemented with 25 μM compound or DMSO. The ENOD4L promoter comprises a 1035 bp promoter from Brassica napus (AB098076.1), which was cloned in front of green fluorescent protein (GFP). A 3110 bp DNA fragment comprising 1292 bp upstream of the LEC1 translational start site and the entire LEC1 protein coding region was cloned in front of green fluorescent protein (GFP). These vectors were transformed to Arabidopsis ecotype Columbia (Col-0).
Control and C#3-treated cultures were examined at different time points in their development to determine the effect of C#3 on the course of somatic embryo development. Differences between the control and C#3-treated cultures were visible at about four days of culture. The epidermal and cortex cells of the root elongation zone and hypocotyl in the control seedlings increased in size, but not in the C#3-treated seedlings. On the sixth day of culture the differences between the two cultures was more pronounced. […] Callus was present on the tips of the cotyledons in circa 10% of the control seedlings, and up to 70% of the C#3 treated seedlings. This callus comprised loose, large cells on the outside, and smaller, denser cells on the on inside.
The timing and location of somatic embryo formation in control and compound-treated cultures was examined in more detail using two early embryo expressed marker genes, ENOD4-like (ENOD4L::GFP), and LEAFY COTYLEDON1 (LEC1::LEC1:GFP). Expression of ENOD4L::GFP and LEC1:GFP in zygotic embryos was observed from the zygote- and two-celled embryo proper stage onward, respectively. […] The GFP-positive sectors increased in size over the next few days, and on the sixth day of culture, GFP-positive globular embryos could be distinguished. The only difference between the C#3-treated and control cultures with respect to embryo marker expression was the number of seedlings displaying GFP fluorescence, which was higher in the C#3-treated cultures.

germinating seeds = test: Developmental competence: C#3 added at different time points after start of culture
Protocol: The competence of an explant for in vitro regeneration is determined for a large part by its developmental state. The developmental competence of germinating seedlings to respond to C#3 was examined by adding C#3 at different time points after the start of culture. Seeds were stratified at 4° C. in media containing 1 μM 2,4-D. 25 μM C#3 or the equivalent volume of DMSO (control) was added to the media at different time points after the cultures were transferred to 25° C. The number of seedlings with somatic embryos was determined after two weeks of culture.

Arabidopsis seedlings [4] = test: Somatic embryogenesis from germinated Arabidopsis seeds in liquid medium with 1 μM 2,4-D (containers)
Source text: The chemical screen was based on a modified version of an Arabidopsis somatic embryogenesis protocol that uses germinated seeds as explants (see Kobayashi et al., 2010 Kobayashi T, Nagayama Y, Higashi K and Kobayashi M. (2010). Establishment of a tissue culture system for somatic embryogenesis from germinating embryos of Arabidopsis thaliana Plant Biotech. 27: 359-364). In the original protocol, seeds were germinated on solid medium for one day, then the embryos were removed from the seed coat and transferred to solid media containing 4.5 μM 2,4-D to stimulate somatic embryo development. In this example, the protocol is simplified by germinating and culturing the seeds continuously in liquid medium containing 1 μM 2,4-D. Under optimized culture conditions (circa 30 seeds in 30 ml medium in 100 ml containers) approximately 18% of Col0 seeds form somatic embryos.
Approximately 10 surface-sterilized Columbia (Col-0) seeds were added to each well. The seeds were stratified at 4° C. in the dark for two days and then grown in on a rotary shaker (100 rpm/min) on a 16 h/8 h day/night cycle at 25° C. The number of seedlings that formed somatic embryos was counted two weeks later. Candidate compounds identified in the first screen were reordered (Chembridge or Maybridge), and re-tested in a second screen under the same conditions as the primary screen, but with a larger sample number (one 96-well microtitre plate/compound). Positive compounds were analysed using ChemMine (http//bioweb.ucr.edu/ChemMineV2/), ChemSpider (http//www.chemsider.com/) and the ZINC database (http://zinc.docking.org) for analogues with a known biological function.
All subsequent experiments were performed under the conditions described above, but using 100 ml containers (Greiner) containing 30 ml of medium media using approximately 30 seeds/container. All hormones were ordered from Duchefa and Dicamba from Sigma-Aldrich.

[5] = 25 μM compound, 1 μM 2,4-D, FIG. 1

Cc1ccccc1N(C)S(=O)(=O)c1ccc(Cl)cc1 [C#3, 4-chloro-N-methyl-N-(2-methylphenyl)benzenesulfonamide]
effect on NAA induced somatic embryogenesis (Arabidopsis seedlings [1]; 25 μM C#3 with 10 μM NAA): enhanced
somatic embryo formation in the absence of 2,4-D (Arabidopsis seedlings [2]; 25 μM C#3, no 2,4-D, FIG. 7A): not able to induce somatic embryo formation
somatic embryo formation at all tested 2,4-D concentrations (Arabidopsis seedlings [2]; 25 μM C#3, up to 2 μM 2,4-D): did enhance somatic embryo formation
number of seedlings displaying GFP fluorescence versus control (Arabidopsis seedlings [3]; embryo marker expression): higher
first detection of ENOD4L::GFP and LEC1:GFP marker expression (Arabidopsis seedlings [3]; region of the shoot meristem): starting from day four of culture
callus formation in root/hypocotyl region (Arabidopsis seedlings [3]; sixth day of culture): formed a large, connected mass of vascular-derived callus
cell loosening and detachment in hypocotyl and root (Arabidopsis seedlings [3]; sixth day of culture): to a lesser extent than the control
seedlings with callus on the tips of the cotyledons (Arabidopsis seedlings [3]; sixth day of culture, control circa 10%): up to 70%
number of embryogenic seedlings compared to control cultures (Arabidopsis seedlings [3]; tenth day of culture): much higher
time of addition giving best response (germinating seeds; 25 μM C#3, 1 μM 2,4-D, scored after two weeks, FIG. 6): within the first two days of culture
enhancement of somatic embryogenesis on late addition (germinating seeds; 25 μM C#3 added after four days of culture): reached control levels
level of SE, percentage of seedlings with somatic embryos, compared to control of 1 μM 2,4-D alone (Arabidopsis seedlings [4]; [5]): significantly increases the level of SE
potency as inducer of SE (Arabidopsis seedlings [4]; [5]): particularly potent inducers
seedlings with somatic embryo development (Arabidopsis seedlings [4]; 10 to 50 μM C#3, 1 μM 2,4-D, control circa 20%): approximately 70%
number of somatic embryo-producing seedlings in different Arabidopsis ecotypes (Arabidopsis seedlings [4]; ecotypes other than Col0): enhanced the number of somatic embryo-producing seedlings
rank of percentage of seedlings with somatic embryos among screened compounds (Arabidopsis seedlings [4]; in presence of 2,4-D): induced the highest percentage of seedlings with somatic embryos
level of SE with increasing concentrations of compound (Arabidopsis seedlings [4]; none to 50 μM, fixed 1 μM 2,4-D, FIG. 5): increases the level of SE

O=C(O)Cc1cccc2ccccc12 [NAA, naphthalene-1-acetic acid, reference compound]
frequency of somatic embryogenesis with NAA alone (Arabidopsis seedlings [1]; 10 μM NAA, FIG. 8): induced a low frequency of somatic embryogenesis

O=C(O)COc1ccc(Cl)cc1Cl [2,4-D, 2,4 dichlorophenoxyacetic acid, reference compound]
seeds forming somatic embryos (Arabidopsis seedlings [4]; 1 μM 2,4-D alone, Col0, circa 30 seeds in 30 ml medium): approximately 18%

Reference: patent US20150291517A1, “BENZENESULFONAMIDE COMPOUNDS FOR SOMATIC EMBRYOGENESIS IN PLANTS” (priority 2012, published 2015)
